# From patent US8552068B2, “Compositions and methods” (priority 2004, dated 2013)
# “Also recorded” adds a separate entry of the source.
# Experiments:
# [1] = tested on: Artificially-ventilated pentobarbital anesthetised rabbits; experiment: Intravenous infusion of carrier solutions saturated with pure nitric oxide gas; exhaled NO and MAP; type: in vivo, rabbit
# Procedure: Male white New Zealand rabbits were subjected to different doses of an intravenous infusion of NO-substituted solutions at different doses. Several physiological parameters were measured during the experiments, including NO concentration in mixed exhaled gas (FENO).
# (§1) Different carrier media solutions (table 1) were dissolved and diluted with saline or water to obtain different concentration of the solutions. The solution was then placed in a gas-tight chamber and deoxygenated by means of helium bubbling for 10 min. The glass chamber was then gassed with pure nitric oxide gas for 3-4 min.
# Data are given as mean±SEM.
# [2] = tested on: pulmonary embolism / venous gas embolism in NO-synthesis inhibited animals; experiment: Treatment of embolism with NO in lipid emulsion in animals with inhibited NO production; type: in vivo; details: animal with inhibited NO production
# From the text: It is contemplated that the NO infusion exerts vasodilatory effects in the pulmonary circulation, and/or mild vasodilatory effect on systemic circulation, and inhibits thrombocyte aggregation, or a combination of these effects.
# The beneficial effects may be induction of vasodilation in the pulmonary vasculature, inhibition of aggregation of thrombocytes and/or minor vasodilation in the whole or parts of the systemic circulation, for example in the coronary circulation.
# [3] = tested on: artificially ventilated pentobarbital anaesthetized rabbits; experiment: Effects of L-NAME infusion in anaesthetised rabbit; details: L-NAME 30 mg kg^−1 throughout 10 min
# From the text: The experiments were approved by the local animal ethics committee. […] The animals were placed in supine position and tracheotomised just below the cricoid cartilage to allow mechanical ventilation using a tracheal cannula with an outer diameter of 5 mm. […] The ventilator was supplied with NO-free air using a charcoal filter (110×11 cm). […] The minute ventilation was 0.64-0.96 l min^−1. To the other side arm a pressure transducer (Statham, Hato Rey, Puerto Rico) was connected thus monitoring the insufflation pressure. The gas from the ventilator outlet was led through a switching valve to either of two beakers creating a positive end-expiratory pressure (PEEP) of 1-2 CmH2O or 4-5 cmhbO. During the experiment the gas flow was altered between the lower PEEP (9 min) and the higher PEEP (1 min) with an interval of totally 10 min. […] A heparinized catheter was inserted in the left common carotid artery for blood pressure and heart rate recordings (pressure transducer, Statham, Hato Rey, Puerto Rico), and arterial blood sampling. Another catheter was inserted in the right jugular vein for drug and muscle emboli administration. […] The muscles from the anterior compartment of the right lower hind limb were resected and placed in normal saline. Hereafter the animals were allowed a 30-60 min intervention-free period to obtain stable circulatory conditions and stable concentrations of expired NO.
# NO concentration, in mixed exhaled gas, was continuously measured by means of a chemiluminescence based system (Niox, Aerocrine AB, Solna, Sweden) sampling at 100 ml min^−1 at the end of a mixing chamber connected to the ventilator exhaust. The full mixing of expired air thus measured on was intermittently checked by monitoring CO2 concentration in the same chamber. In a few experiments, gas for NO measurement was sampled from the trachea at the same point as for tidal CO2 measurements, thus yielding breath by breath NO concentrations. Calibration was done using certified NO standard gas in nitrogen (AGA Specialgas, Lidingδ, Sweden).
# Blood samples were collected and analyzed for blood gases and acid-base status (ABL 300, Radiometer A/S, Copenhagen, Denmark) before L-NAME administration (group 2, time=−40 min) and shortly before muscle emboli challenge (group 1 and 2, time=−5 min). […] Arterial blood samples were collected and analysed at 10 min, 20 min, 40 min and 60 min after embolization. NO concentration in exhaled gas, end-tidal CO2, heart rate, mean arterial pressure and insufflation pressure was continuously monitored on a Grass Polygraph (Grass Instruments Co, Quincy, Mass., USA) during the experiments.
# [4] = Deoxygenation and exposure of carrier to NO gas (suitability for infusion); type: physicochemical
# Procedure: as §1
Compound,effect as NO carrier / NO delivering capacity (words) ([1]; compared to the saline control),"Exhaled NO, Change (%) ([1]; infusion versus pre-infusion)","Exhaled NO, Change (absolute value) ([1]; infusion versus pre-infusion) [ppb]","MAP, Change (%) ([1]; infusion versus pre-infusion)","MAP, Change (absolute value) ([1]; infusion versus pre-infusion) [cmH2O]",further results
"OCCCO [1,3-Propanediol]",noticeable effect; also recorded: exhibited NO delivering capacity,562,78.2,−33,−38.2,–
"O=C[C@H](O)[C@@H](O)[C@@H](O)[C@H](O)CO [Galactose (60%), Galactose]",–,–,–,–,–,"Exhaled NO, Change (%) ([1]; rabbit, in vivo): 41%; Exhaled NO, Change (absolute value) ([1]; rabbit, in vivo): 3.3 ppb; effect as NO carrier / NO delivering capacity (words) ([1]; rabbit, in vivo): noticeable effect"
Inulin [Inulin (15%)],noticeable effect,12,1.8,−31,−26.5,–
NCC(=O)O [Glycine],–,−4,−0.6,–,–,–
O=CC[C@H](O)[C@H](O)CO [2-deoxy-Ribose],noticeable effect,269,32.7,–,–,–
C[C@H](N)C(=O)O [Alanine],–,0,0,–,–,–
"OC[C@H]1O[C@@](CO)(O[C@H]2O[C@H](CO)[C@@H](O)[C@H](O)[C@H]2O)[C@@H](O)[C@@H]1O [Sucrose (60%), Sucrose]",noticeable effect,75,11.2,–,–,–
"O=C[C@H](O)[C@H](O)[C@H](O)CO [Ribose (50%), Ribose]",noticeable effect,77 ± 43,8.2 ± 3.0,–,–,–
"O=C(CO)[C@@H](O)[C@H](O)[C@H](O)CO [Fructose (60%), Fructose]",noticeable effect,88,13.1,–,–,–
"Heparin [Heparin (15000 IU/ml, 10%)]",–,−5,−0.6,−12,−8.8,–
"CC(C)O [Carrier 2-PropanoI, 2-propanol]",noticeable effect; also recorded: marked effect,1400,180,−15,−14.7,–
Dextran [Dextran (15%)],noticeable effect; also recorded: positive results,24,2.8,−34,−45.5,–
"NCC(O)CO (stereo not drawn) [3-Amino-1,2-propanediol]",–,0,0,–,–,–
"[N]=O [inhaled nitric oxide, nitric oxide]",–,–,–,–,–,treatment of venous gas embolism [2]: impossible to treat
CCO [Etanol],–,0,0,0,0,–
OCC(O)CO [Glycerol],act as a selective NO carrier,475 ± 120,63.3 ± 10.5,–,–,"effect as NO carrier / NO delivering capacity (words) ([1]; compared to the saline control, listed as glycerol): noticeable effect"
CC(=O)N[C@@H](CS)C(=O)O [N-Acetylcysteine],noticeable effect,19,4.1,–,–,–

Compound,effect as NO carrier / NO delivering capacity (words) ([1]; compared to the saline control),"Exhaled NO, Change (%) ([1]; infusion versus pre-infusion)","Exhaled NO, Change (absolute value) ([1]; infusion versus pre-infusion) [ppb]","MAP, Change (%) ([1]; infusion versus pre-infusion)","MAP, Change (absolute value) ([1]; infusion versus pre-infusion) [cmH2O]",further results
"NC(CO)CO [2-Amino-1,3-propanediol]",–,14,2.4,–,–,–
"CC(O)CO (stereo not drawn) [1,2-Propanediol]",noticeable effect; also recorded: exhibited NO delivering capacity,217,27.9,−16,−14.7,–
"OC[C@@H](O)[C@@H](O)[C@H](O)[C@@H](O)CO [Sorbitol (60%), Sorbitol]",noticeable effect,60,4.2,–,–,–
CC(O)C(=O)O (stereo not drawn) [Lactate],–,0,0,−2,−1.5,–
O=C(O)[C@H](O)[C@@H](O)[C@H](O[C@@H]1O[C@H](CO)[C@H](O)[C@H](O)[C@H]1O)[C@H](O)CO [Lactobionic acid],noticeable effect,42,8.3,−35,−32.4,–
C[C@H](O)[C@@H](O)[C@@H](O)[C@H](O)C=O [Fucose],noticeable effect,22,4.1,–,–,–
Polyethylene glycol,noticeable effect,61,11.2,−19,−17.6,–
"CCCO [Carrier 1-Propanol, 1-Propanol]",–,733,–,−11,–,–
N[C@H]1C(O)O[C@H](CO)[C@@H](O)[C@@H]1O (stereo partly drawn) [Glucosamine],–,−9,−0.9,–,–,–
O=C[C@H](O)[C@@H](O)[C@H](O)[C@H](O)C(=O)O [Glucuronic acid],–,0,0,–,–,–
Fucoidan [Fucoidan (10%)],noticeable effect,23,4.7,−52,−55.9,–
N=C(N)NCCC[C@H](N)C(=O)O [Arginine],–,–,–,–,–,"Exhaled NO, Change (%) ([1]; rabbit, in vivo): 3%; Exhaled NO, Change (absolute value) ([1]; rabbit, in vivo): 0.6 ppb"
"COC(=O)[C@@H](N)CCCNC(=N)N[N+](=O)[O-] [L-NAME, N^G-nitro-L-arginine methyl ester]",–,–,–,–,–,End-tidal CO2 and the relevant blood gas parameters [3]: normal; exhaled nitric oxide after L-NAME infusion [3]: < 1 ppb; heart rate (HR) after L-NAME infusion [3]: 258 beats min^−1; systemic mean arterial blood pressure (MAP) after L-NAME infusion [3]: 128 cmHaO
"COC1O[C@H](CO)[C@@H](O)[C@H]1O (stereo partly drawn) [1-O-methyI-Ribose, 1-O-methyl-ribose]",noticeable effect,1284,155.9,−50,−50.0,–
"OC[C@@H](O)[C@@H](O)[C@H](O)[C@H](O)CO [Mannitol (20%), Mannitol]",noticeable effect; also recorded: positive results,55.6,4.7,–,–,–
N[C@@H](CS)C(=O)O [L-cysteine],–,–,–,–,–,"behaviour when deoxygenated and exposed to NO gas [4]: a copious precipitate, unsuitable for infusion, was formed"
PEG 400,positive results,–,–,–,–,–
